In patent US20250325552A1, “SUBSTITUTED THIADIAZOLYL DERIVATIVES AS DNA POLYMERASE THETA INHIBITORS” (IDEAYA Biosciences, Inc., priority 2020, published 2025):

Each compound was assayed against Polθ theta (1-899) (hPolQ) (Homo sapiens (Human), UniProt O75417) (assay: Biological Assay 1: Polθ ATPase activity, NADH oxidation-coupled enzymatic assay (10 nM enzyme, 30 min)). Details: Polθ (1-899) 10 nM, 100 μM ATP, 300 nM dT50 ssDNA; Examples 1 to 268; read-out: ATPase NADH coupling:Standard Screening:hPolQ IC50.
Type: biochemical
Procedure, shortened: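 ATP turnover was coupled to NADH oxidation and followed at 340 nm every minute for 30 min. Enzyme (residues 1-899, 10 nM) sat with compound for 15 min at room temperature before an equal-volume addition of 100 μM ATP plus 300 nM dT50 ssDNA. Progress-curve slopes from 10-point dilutions were fitted by a four-parameter model.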

Chain of Polθ theta (1-899) (hPolQ) (O75417 1-899): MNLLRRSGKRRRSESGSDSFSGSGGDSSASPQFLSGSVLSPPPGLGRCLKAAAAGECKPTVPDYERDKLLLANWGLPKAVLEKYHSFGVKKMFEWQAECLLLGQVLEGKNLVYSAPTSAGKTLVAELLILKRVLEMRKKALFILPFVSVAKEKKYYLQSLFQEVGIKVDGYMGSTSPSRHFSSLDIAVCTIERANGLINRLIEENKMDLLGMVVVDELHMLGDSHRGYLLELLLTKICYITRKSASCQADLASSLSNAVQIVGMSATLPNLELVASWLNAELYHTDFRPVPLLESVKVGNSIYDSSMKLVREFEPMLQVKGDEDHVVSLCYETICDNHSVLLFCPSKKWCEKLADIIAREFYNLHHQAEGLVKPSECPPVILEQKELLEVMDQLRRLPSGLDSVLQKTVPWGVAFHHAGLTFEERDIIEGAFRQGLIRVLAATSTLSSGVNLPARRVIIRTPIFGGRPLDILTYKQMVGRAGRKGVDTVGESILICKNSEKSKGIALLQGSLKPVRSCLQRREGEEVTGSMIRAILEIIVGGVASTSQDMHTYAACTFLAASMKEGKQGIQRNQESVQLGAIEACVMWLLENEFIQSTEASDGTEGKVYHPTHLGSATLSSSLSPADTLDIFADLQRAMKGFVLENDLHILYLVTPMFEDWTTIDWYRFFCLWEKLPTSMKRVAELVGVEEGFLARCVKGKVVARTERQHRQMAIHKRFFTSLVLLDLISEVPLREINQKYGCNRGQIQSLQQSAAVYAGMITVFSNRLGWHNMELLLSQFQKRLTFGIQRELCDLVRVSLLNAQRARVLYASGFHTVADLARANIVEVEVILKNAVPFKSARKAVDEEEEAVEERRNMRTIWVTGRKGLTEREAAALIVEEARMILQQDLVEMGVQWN

SMILES	IC50 [µM]
COc1cnc(Cl)cc1-c1cc(C)ncc1C(=O)Nc1nnc(OC[C@H]2CC[C@H](F)CC2)s1 [Example 197, 2′-chloro-N-(5-(((1r,4r)-4-fluorocyclohexyl)methoxy)-1,3,4-thiadiazol-2-yl)-5′-methoxy-6-methyl-(4,4′-bipyridine)-3-carboxamide]	≤ 0.2
COc1cnc(Cl)cc1-c1cc(C)ncc1C(=O)Nc1nnc(OCC2(F)CC2)s1 [Example 198, 2′-chloro-N-(5-((1-fluorocyclopropyl)methoxy)-1,3,4-thiadiazol-2-yl)-5′-methoxy-6-methyl-(4,4′-bipyridine)-3-carboxamide]	≤ 0.2
COc1cccc(F)c1-c1cc2nc[nH]c2cc1C(=O)Nc1nnc(OC[C@H]2CC[C@H](O)CC2)s1 [Example 199, 5-(2-fluoro-6-methoxyphenyl)-N-(5-(((1r,4r)-4-hydroxycyclohexyl)methoxy)-1,3,4-thiadiazol-2-yl)-1H-benzo(d)imidazole-6-carboxamide]	1 to 10
COc1cccc(F)c1-c1cc2ncn(C)c2cc1C(=O)Nc1nnc(OC[C@H]2CC[C@H](O)CC2)s1 [Example 200, 5-(2-fluoro-6-methoxyphenyl)-N-(5-(((1r,4r)-4-hydroxycyclohexyl)methoxy)-1,3,4-thiadiazol-2-yl)-1-methyl-1H-benzo(d)imidazole-6-carboxamide]	0.2 to 0.5
COc1cccc(F)c1-c1cn2ncc(F)c2cc1C(=O)Nc1nnc(OC[C@H]2CC[C@H](O)CC2)s1 [Example 201, 3-fluoro-6-(2-fluoro-6-methoxyphenyl)-N-(5-(((1r,4r)-4-hydroxycyclohexyl)methoxy)-1,3,4-thiadiazol-2-yl)pyrazolo(1,5-a)pyridine-5-carboxamide]	≤ 0.2
COc1cnc(Cl)cc1-c1cc(C)ncc1C(=O)Nc1nnc(OC[C@@H]2C[C@@H]2F)s1 [Example 202, 2′-chloro-N-(5-(((1S,2S)-2-fluorocyclopropyl)methoxy)-1,3,4-thiadiazol-2-yl)-5′-methoxy-6-methyl-(4,4′-bipyridine)-3-carboxamide]	≤ 0.2
COc1cnc(C)cc1-c1cc(C)ncc1C(=O)Nc1nnc(OCC2(F)CC2)s1 [Example 203, N-(5-((1-fluorocyclopropyl)methoxy)-1,3,4-thiadiazol-2-yl)-5′-methoxy-2′,6-dimethyl-(4,4′-bipyridine)-3-carboxamide]	≤ 0.2
COc1cnc(Cl)cc1-c1cc(C)ncc1C(=O)Nc1nnc(OCC2CCC2(F)F)s1 (stereo not drawn) [Example 204, 2′-chloro-N-(5-((2,2-difluorocyclobutyl)methoxy)-1,3,4-thiadiazol-2-yl)-5′-methoxy-6-methyl-(4,4′-bipyridine)-3-carboxamide]	≤ 0.2
COc1cnc(Cl)cc1-c1cc(C)ncc1C(=O)Nc1nnc(OCC2(C#N)CC2)s1 [Example 205, 2′-chloro-N-(5-((1-cyanocyclopropyl)methoxy)-1,3,4-thiadiazol-2-yl)-5′-methoxy-6-methyl-(4,4′-bipyridine)-3-carboxamide]	≤ 0.2
COc1cnc(Cl)cc1-c1cc(C)ncc1C(=O)Nc1nnc(OCC2CC2(F)F)s1 (stereo not drawn) [Example 206, 2′-chloro-N-(5-((2,2-difluorocyclopropyl)methoxy)-1,3,4-thiadiazol-2-yl)-5′-methoxy-6-methyl-(4,4′-bipyridine)-3-carboxamide]	≤ 0.2
COc1cnc(C)c(F)c1-c1cc(C)ncc1C(=O)Nc1nnc(OC[C@H]2CC[C@H](O)CC2)s1 [Example 212, 3′-fluoro-N-(5-(((1r,4r)-4-hydroxycyclohexyl)methoxy)-1,3,4-thiadiazol-2-yl)-5′-methoxy-2′,6-dimethyl-(4,4′-bipyridine)-3-carboxamide]	≤ 0.2
COc1cnc(C)c(F)c1-c1cc(C)ncc1C(=O)Nc1nnc(OC[C@H]2CC[C@@](C)(O)CC2)s1 [Example 213, 3′-fluoro-N-(5-(((1s,4s)-4-hydroxy-4-methylcyclohexyl)methoxy)-1,3,4-thiadiazol-2-yl)-5′-methoxy-2′,6-dimethyl-(4,4′-bipyridine)-3-carboxamide]	≤ 0.2
